Test results published in ChEMBL document CHEMBL1201862, “PubChem BioAssay data set” (2004).
The source made the active and inactive calls.

Experiments:
[1] = M. tuberculosis H37Rv growth inhibitors, H37Rv strain (AID 1626); type: functional
[2] = viability loss in Vero cells – cytotoxicity control for Vif-APOBEC3G degradation inhibitor project, dose response (AID 1117358); type: functional; conditions: Vero
Cytochrome P450 1A2 = biological target: T1, Cytochrome P450 1A2 (Homo sapiens, UniProt P05177);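 note: PubChem cytochrome P450 panel assay, CYP1A2 panel member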
T1 sequence (P05177 whole entry): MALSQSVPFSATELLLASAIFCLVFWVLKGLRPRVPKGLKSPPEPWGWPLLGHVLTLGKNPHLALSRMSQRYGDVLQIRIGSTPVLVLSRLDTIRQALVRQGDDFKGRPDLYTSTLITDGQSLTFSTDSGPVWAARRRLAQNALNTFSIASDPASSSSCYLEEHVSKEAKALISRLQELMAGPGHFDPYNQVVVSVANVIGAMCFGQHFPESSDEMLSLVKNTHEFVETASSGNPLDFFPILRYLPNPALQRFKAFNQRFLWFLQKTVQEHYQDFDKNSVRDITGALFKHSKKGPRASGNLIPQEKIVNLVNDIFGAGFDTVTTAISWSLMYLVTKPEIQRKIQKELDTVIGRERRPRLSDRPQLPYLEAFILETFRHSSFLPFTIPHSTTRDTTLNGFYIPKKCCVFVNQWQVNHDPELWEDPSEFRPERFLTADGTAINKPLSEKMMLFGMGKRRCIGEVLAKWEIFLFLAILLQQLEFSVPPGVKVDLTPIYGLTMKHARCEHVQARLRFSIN

Cytochrome P450 2C19 = Cytochrome P450 2C19 (Homo sapiens, UniProt P33261); assay: Cytochrome panel assay with activity outcomes. Panel member name: p450-cyp2c19 Compounds with AC50 equal or less than 10 uM are considered active; type: functional; conditions: read-out: AC50
Cytochrome P450 2C9 = Cytochrome P450 2C9 (Homo sapiens, UniProt P11712)
BJ [3] = assay: BJ-TERT-LT-ST fibroblast viability loss – cell-based, RAS-independent, luminescence, dose response (AID 1935); type: functional; conditions: Homo sapiens;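 note: BJ fibroblasts immortalized with TERT plus LT and ST oncogenes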
[4] = biological target: T2, Replicative DNA helicase DnaB (Mycobacterium tuberculosis, UniProt P9WMR3); assay: DnaB intein splicing inhibitors, dose response, biochemical, cell-free fluorescence (AID 449749); type: functional
T2 sequence (P9WMR3 whole entry): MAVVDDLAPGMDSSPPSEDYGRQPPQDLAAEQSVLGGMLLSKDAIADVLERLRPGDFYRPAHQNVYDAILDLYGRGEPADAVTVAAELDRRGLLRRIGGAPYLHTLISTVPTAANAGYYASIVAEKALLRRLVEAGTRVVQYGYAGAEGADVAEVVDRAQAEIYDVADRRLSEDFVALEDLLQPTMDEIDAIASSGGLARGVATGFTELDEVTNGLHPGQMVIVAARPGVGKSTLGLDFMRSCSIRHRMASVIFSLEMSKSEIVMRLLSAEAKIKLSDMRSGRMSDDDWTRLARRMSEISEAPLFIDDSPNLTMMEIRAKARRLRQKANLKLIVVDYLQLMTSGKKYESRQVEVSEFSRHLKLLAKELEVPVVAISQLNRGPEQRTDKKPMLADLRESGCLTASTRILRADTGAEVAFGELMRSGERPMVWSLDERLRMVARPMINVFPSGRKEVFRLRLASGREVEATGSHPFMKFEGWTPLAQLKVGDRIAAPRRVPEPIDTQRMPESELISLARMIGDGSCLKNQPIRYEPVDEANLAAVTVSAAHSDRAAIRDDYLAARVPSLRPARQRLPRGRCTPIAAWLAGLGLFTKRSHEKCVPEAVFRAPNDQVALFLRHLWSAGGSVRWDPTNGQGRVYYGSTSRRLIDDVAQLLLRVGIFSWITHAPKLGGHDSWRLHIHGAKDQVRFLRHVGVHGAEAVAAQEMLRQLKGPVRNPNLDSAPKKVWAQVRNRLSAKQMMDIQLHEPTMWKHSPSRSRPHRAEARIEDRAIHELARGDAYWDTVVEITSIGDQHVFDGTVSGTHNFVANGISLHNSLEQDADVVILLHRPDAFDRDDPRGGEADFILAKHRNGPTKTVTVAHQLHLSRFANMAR

[5] = reduction of Shn3 3'UTR-driven luciferase in osteoblasts – cell-based, Clone20 osteoblasts, firefly luciferase, cherry-picked, dose response (AID 624132); type: functional;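 note: firefly luciferase luminescence from reporter carrying the Shn3 3'UTR in osteoblasts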
[6] = luciferase reporter signal suppression in cells – H4 neuroglioma cells, luminescence, dose response (AID 1990); type: functional, cell-based
Protein RecA = biological target: T3, Protein RecA (Mycobacterium tuberculosis, UniProt P9WHJ3); assay: Fluorescence Cell-Free Homogeneous Dose Retest to Identify Inhibitors of RecA-Intein Splicing Activity. [Related pubchem assays (depositor defined):AID2097, AID2223, AID489010, AID492950]; type: functional
T3 sequence (P9WHJ3 whole entry): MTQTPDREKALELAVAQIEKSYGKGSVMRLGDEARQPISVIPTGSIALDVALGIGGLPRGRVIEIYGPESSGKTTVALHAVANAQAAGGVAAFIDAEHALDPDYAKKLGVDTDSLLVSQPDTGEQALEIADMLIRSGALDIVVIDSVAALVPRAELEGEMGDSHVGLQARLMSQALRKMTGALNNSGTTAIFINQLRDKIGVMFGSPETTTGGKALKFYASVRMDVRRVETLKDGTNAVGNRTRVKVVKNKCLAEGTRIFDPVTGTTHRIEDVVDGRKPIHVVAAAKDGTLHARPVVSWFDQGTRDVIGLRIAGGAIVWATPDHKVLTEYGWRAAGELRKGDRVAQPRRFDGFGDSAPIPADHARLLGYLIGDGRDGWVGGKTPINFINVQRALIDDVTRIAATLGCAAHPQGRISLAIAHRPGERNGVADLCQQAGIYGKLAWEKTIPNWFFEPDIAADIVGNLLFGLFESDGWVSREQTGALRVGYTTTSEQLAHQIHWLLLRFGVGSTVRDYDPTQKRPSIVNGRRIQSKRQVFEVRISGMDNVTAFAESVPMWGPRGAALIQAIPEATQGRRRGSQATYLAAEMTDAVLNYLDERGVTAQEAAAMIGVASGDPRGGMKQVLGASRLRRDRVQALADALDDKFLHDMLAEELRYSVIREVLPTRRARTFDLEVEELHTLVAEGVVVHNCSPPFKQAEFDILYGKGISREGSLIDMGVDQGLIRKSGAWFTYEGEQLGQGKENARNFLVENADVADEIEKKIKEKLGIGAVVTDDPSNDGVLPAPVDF

BJ [7] = assay: cells; type: functional, cell-based; conditions: Homo sapiens
[8] = Fluorescence-based cell-based high throughput dose response assay for inhibitors of the interaction of nucleotide-binding oligomerization domain containing 2 (NOD2) and the receptor-interacting serine-threonine kinase 2 (RIPK2).; type: functional; conditions: Homo sapiens
[9] = alpha-synuclein stem-loop luciferase translation blockers – H4 neuroglioma cells, luminescence, confirmation (AID 1988); type: functional, cell-based
[10] = Luminescence Cell-Based Dose Response HTS to Identify Inhibitors of 5'UTR Stem-Loop Driven Prion Protein mRNA Translation in H4 Neuroglioblastoma Cells. [Related pubchem assays: 1827 (Project Summary), 1813 (Primary HTS)]; type: functional
BJ [11] = assay: growth inhibition of engineered Ras-driven BJ cells – cell-based, alamar blue fluorescence, cherrypicked samples, dose response (AID 2631); type: functional; conditions: Homo sapiens;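 note: confirmatory dose-response assay in RAS-dependent BJ fibroblasts engineered with TERT, LT and ST, with cytotoxicity read by fluorescence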
BJ [12] = assay: BJ-TERT fibroblast viability loss – cell-based, RAS-independent, luminescence, dose response (AID 1933); type: functional; conditions: Homo sapiens
[13] = non-specific 3'UTR reporter inhibition in Clone20-Shn3RL – cell-based, Renilla luciferase, cherry-picked, counter-screen for Shn3 inhibitor project, dose response (AID 624133); type: functional
Caspase-6 = biological target: T4, Caspase-6 (Homo sapiens, UniProt P55212); assay: inhibition of CASP6 peptide cleavage – biochemical, VEID-R110 fluorescence, cherry-pick, dose response (AID 720632)
T4 sequence (P55212 whole entry): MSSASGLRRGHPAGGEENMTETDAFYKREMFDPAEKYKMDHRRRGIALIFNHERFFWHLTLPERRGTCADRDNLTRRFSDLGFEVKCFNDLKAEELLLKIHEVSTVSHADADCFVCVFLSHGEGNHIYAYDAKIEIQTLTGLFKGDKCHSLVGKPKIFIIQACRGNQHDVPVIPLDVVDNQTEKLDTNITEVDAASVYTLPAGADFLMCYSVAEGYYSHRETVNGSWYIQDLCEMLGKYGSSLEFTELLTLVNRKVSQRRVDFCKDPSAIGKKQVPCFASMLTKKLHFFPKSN

[14] = DRD fibroblast viability loss – cell-based, non-viral oncogenic, luminescence, dose response (AID 1934); type: functional; conditions: Homo sapiens
[15] = loss of viability in HepG2 cells – cell-based, CellTiter-Glo, cherry-picked, cytotoxicity control for Shn3 inhibitor project, dose response (AID 624134); type: functional
INS1 = assay: INS-1E survival protection against cytokine death – cell-based, luminescence, retest, dose response (AID 449756); type: functional; conditions: Rattus norvegicus;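 note: cell death triggered by IL-1 beta plus TNF-alpha plus IFN-gamma mixture; protective hits raise ATP signal compared with cytokine alone wells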

Cytochrome P450 2C9, sequence (P11712 whole entry): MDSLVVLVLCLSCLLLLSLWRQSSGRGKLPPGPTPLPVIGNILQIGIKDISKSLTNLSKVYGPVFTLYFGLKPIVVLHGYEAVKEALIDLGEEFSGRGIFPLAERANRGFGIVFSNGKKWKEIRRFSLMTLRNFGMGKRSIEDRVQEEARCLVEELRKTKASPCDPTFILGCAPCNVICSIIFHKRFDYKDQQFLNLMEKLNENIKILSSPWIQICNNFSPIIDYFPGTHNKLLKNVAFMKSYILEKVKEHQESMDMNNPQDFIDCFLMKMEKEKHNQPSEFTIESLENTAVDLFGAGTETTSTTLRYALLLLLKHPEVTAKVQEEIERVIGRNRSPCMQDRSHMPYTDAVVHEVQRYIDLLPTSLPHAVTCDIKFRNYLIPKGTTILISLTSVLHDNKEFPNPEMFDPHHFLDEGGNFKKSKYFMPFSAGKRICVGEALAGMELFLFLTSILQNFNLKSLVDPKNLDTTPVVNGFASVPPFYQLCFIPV
Cytochrome P450 2C19, sequence (P33261 whole entry): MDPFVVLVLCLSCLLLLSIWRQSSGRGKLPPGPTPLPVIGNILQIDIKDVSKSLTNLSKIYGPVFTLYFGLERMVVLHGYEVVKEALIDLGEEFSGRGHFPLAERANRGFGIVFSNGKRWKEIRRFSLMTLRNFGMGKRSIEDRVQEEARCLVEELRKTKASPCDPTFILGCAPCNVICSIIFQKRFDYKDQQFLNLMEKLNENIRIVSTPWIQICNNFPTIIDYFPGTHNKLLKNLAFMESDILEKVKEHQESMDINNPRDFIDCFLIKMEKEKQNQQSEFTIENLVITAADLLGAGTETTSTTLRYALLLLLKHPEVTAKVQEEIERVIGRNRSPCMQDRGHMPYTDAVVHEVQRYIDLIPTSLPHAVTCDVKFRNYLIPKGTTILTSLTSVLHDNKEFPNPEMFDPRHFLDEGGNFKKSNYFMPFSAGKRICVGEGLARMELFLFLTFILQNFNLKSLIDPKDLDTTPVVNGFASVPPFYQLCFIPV

## Cc1cc(=O)oc2ccc(OC(=O)CC(C)C)cc12
[1]
  IC50: > 100 µM (active)

## O=C(NNC(=O)c1ccccc1-n1cccc1)c1ccc(Cl)c(Cl)c1
[2]
  CC50: > 40 µM (active)
Cytochrome P450 1A2
  AC50: 25.1 µM (inconclusive)
Cytochrome P450 2C19
  AC50: 3.98 µM (inconclusive)
Cytochrome P450 2C9
  AC50: inconclusive

## O=C(Nc1ccc2nc3n(c(=O)c2c1)CCCCC3)c1c(F)ccc([N+](=O)[O-])c1F
BJ [3]
  EC50: 50.7 µM (inconclusive)
[4]
  AC50: 14.8 µM (active)
[5]
  AC50: 2.3 µM (active)
[6]
  EC50: > 120 µM (not active)
Protein RecA
  EC50: 5.17 µM (active)
BJ [7]
  EC50: > 150 µM (inconclusive)
[8]
  IC50: 8.8 µM (active)
[9]
  EC50: > 120 µM (not active)
[10]
  EC50: > 120 µM (not active)
BJ [11]
  EC50: 0.571 µM (active)
BJ [12]
  EC50: 17.7 µM (active)
[13]
  AC50: 4.65 µM (active)
Caspase-6
  AC50: 4.39 µM (active)
[14]
  EC50: 4.04 µM (inconclusive)
[15]
  AC50: 12.5 µM (active)
INS1
  AC50: 6.28 µM (active)
